Assay results from patent US10611750B2, “Tetrahydroquinoline compositions as bet bromodomain inhibitors” (FORMA Therapeutics, Inc., priority 2013, dated 2020).
pIC50: −log10 of the molar value.

Experiments:
[1] = biological target: T1, BRD4 Bromodomain 1 (BRD4 BD1) (Homo sapiens, UniProt O60885); assay: AlphaScreen binding assay, BRD4 BD1; conditions: His-tagged BRD4 BD1 50 nM, biotinylated H4 (1-21) K5/8/12/16 tetra-acetylated peptide 50 nM, compounds listed under IC50 range headings
T1 construct: 44-168 and BRD4 BD2
Method: The binding of Example compounds to BRD4 Bromodomain 1 and BRD4 Bromodomain 2 was assessed using 384-well AlphaScreen assay technology. His-epitope tagged BRD4 BD144-168 and BRD4 BD2333-460 were cloned, expressed, and purified to homogeneity. BRD4 BD1 and BRD4 BD2 binding and inhibition was assessed by monitoring the engagement of biotinylated Histone H4 (1-21) K5/8/12/16 tetra-acetylated peptide with the targets using the AlphaScreen technology (PerkinElmer). Specifically, in a 384-well black or white flat bottom plate, BRD4 BD1 (50 nM final) or BRD4 BD2 (100 nM final) was combined with peptide (50 nM final for BD1 or 100 nM final for BD2) in 50 mM HEPES (pH 7.3), 100 mM NaCl, 0.1% (w/v) BSA, and 0.01% (w/v) Triton X-100 either in the presence of DMSO (final 1.25% DMSO) or compound dilution series in DMSO. Alpha streptavidin donor beads and Nickel-chelate acceptor beads were added to a final concentration of 10 μg/ml each. After a minimum of 1 hour equilibration, plates were read on a BMG PHERAstar FS multi-label reader (BMG LabTech). The half maximal inhibitory concentration (IC50) values were calculated using IDBS Activity Base software with a four parameter logistic curve fit by the equation y=A+((B−A)/(1+((C/x)^D))), wherein A denotes the bottom plateau of the curve, B denotes the top plateau of the curve, C denotes the x value at the middle of the curve, D denotes the slope factor, x denotes the original known x values, and y denotes the original known y values. Data was fitted using the Levenburg Marquardt algorithm.

[2] = test system: acute myelocytic leukemia (AML) cell line MV4-11; assay: Oncology cell growth assay (3-day proliferation, CellTiter-Glo); type: cell-based; conditions: Homo sapiens, MV4-11, 72 h, MV4-11 cells, 3000 cells/well, compounds listed under IC50 range headings, read-out: MV411 IC50 (gIC50, inhibition of proliferation)
Method: The impact of Example compounds on cancer cell proliferation was determined using the acute myelocytic leukemia (AML) cell line MV4-11 (ATCC) in a 3-day proliferation assay. MV4-11 cells were maintained in RPMI 1640 media supplemented with 10% FBS at 37° C. and an atmosphere of 5% CO2. For compound testing, compound dilutions series were prepared in DMSO via a 3-fold serial dilution from 2 mM to 0.001 mM in 384-well white flat bottom plates. The final compound concentrations in the wells were 10, 3.3, 1.1, 0.37, 0.12, 0.041, 0.013 and 0.0045 μM. MV4-11 cells were plated at a density of 3000 cells/well in final volume of 50 μl culture media and incubated for 72 hours. […] Luminescent signal from the CellTiter-Glo assay was read on an EnVision multilabel plate reader (PerkinElmer). Values for the concentration that inhibited cell growth by 50% (gIC50) between the DMSO control and background control (no cells) were determined using IDBS Activity Base software with a four parameter logistic curve fit by the equation y=A+((B−A)/(1+((C/x)^D))), wherein A denotes the bottom plateau of the curve, B denotes the top plateau of the curve, C denotes the x value at the middle of the curve, D denotes the slope factor, x denotes the original known x values, and y denotes the original known y values. Data was fitted using the Levenburg Marquardt algorithm.

| Compound | pIC50 [1] | pIC50 [2] |
| --- | --- | --- |
| C[C@H]1CCc2c(ccc(-c3cn[nH]c3)c2OC2CCC2)N1C(=O)C1CC1 [I-54, (S)-(5-cyclobutoxy-2-methyl-6-(1H-pyrazol-4-yl)-3,4-dihydroquinolin-1 (2H)-yl)(cyclopropyl)methanone] | 6.00 to 7.00 | > 6.30 |
| C[C@H]1CCc2c(ccc(-c3cnn(C)c3)c2OC2CCC2)N1C(=O)C1CC1 [I-55, (S)-(5-cyclobutoxy-2-methyl-6-(1-methyl-1H-pyrazol-4-yl)-3,4-dihydroquinolin-1 (2H)-yl)(cyclopropyl)methanone] | 6.00 to 7.00 | > 6.30 |
| C[C@H]1CCc2c(ccc(-c3ccn[nH]3)c2OC2CCC2)N1C(=O)C1CC1 [I-56, (S)-(5-cyclobutoxy-2-methyl-6-(1H-pyrazol-5-yl)-3,4-dihydroquinolin-1(2H)-yl)(cyclopropyl)methanone] | 5.00 to 6.00 | 6.00 to 6.30 |
| C[C@H]1CCc2c(ccc(-c3cn(C)cn3)c2OC2CCC2)N1C(=O)C1CC1 [I-57, (S)-(5-cyclobutoxy-2-methyl-6-(1-methyl-1H-imidazol-4-yl)-3,4-dihydroquinolin-1(2H)-yl)(cyclopropyl)methanone] | 6.00 to 7.00 | > 6.30 |
| C[C@H]1CCc2c(OC3CCC3)c(-c3cnn(C4CC4)c3)cc(F)c2N1C(=O)C1CC1 [I-69, (S)-(5-cyclobutoxy-6-(1-cyclopropyl-1H-pyrazol-4-yl)-8-fluoro-2-methyl-3,4-dihydroquinolin-1(2H)-yl)(cyclopropyl)methanone] | 5.00 to 6.00 | 6.00 to 6.30 |
| C[C@H]1CCc2c(OC3CCC3)c(-c3cn[nH]c3)cc(F)c2N1C(=O)C1CC1 [I-70, (S)-(5-cyclobutoxy-8-fluoro-2-methyl-6-(1H-pyrazol-4-yl)-3,4-dihydroquinolin-1(2H)-yl)(cyclopropyl)methanone] | 5.00 to 6.00 | 6.00 to 6.30 |
| COC(=O)N1c2c(F)cc(-c3cnn(C4CC4)c3)c(OC3CCC3)c2CC[C@@H]1C [I-71, (S)-methyl 5-cyclobutoxy-6-(1-cyclopropyl-1H-pyrazol-4-yl)-8-fluoro-2-methyl-3,4-dihydroquinoline-1(2H)-carboxylate] | 6.00 to 7.00 | 6.00 to 6.30 |
| COC(=O)N1c2c(F)cc(-c3cn[nH]c3)c(OC3CCC3)c2CC[C@@H]1C [I-72, (S)-methyl 5-cyclobutoxy-8-fluoro-2-methyl-6-(1H-pyrazol-4-yl)-3,4-dihydroquinoline-1(2H)-carboxylate] | 6.00 to 7.00 | > 6.30 |
| CC(=O)N1c2c(F)cc(-c3cnn(C4CC4)c3)c(OC3CCC3)c2CC[C@@H]1C [I-73, (S)-1-(5-cyclobutoxy-6-(1-cyclopropyl-1H-pyrazol-4-yl)-8-fluoro-2-methyl-3,4-dihydroquinolin-1(2H)-yl)ethanone] | 6.00 to 7.00 | 6.00 to 6.30 |
| CC(=O)N1c2c(F)cc(-c3cn[nH]c3)c(OC3CCC3)c2CC[C@@H]1C [I-74, (S)-1-(5-cyclobutoxy-8-fluoro-2-methyl-6-(1H-pyrazol-4-yl)-3,4-dihydroquinolin-1(2H)-yl)ethanone] | 5.00 to 6.00 | 6.00 to 6.30 |
| CC(=O)N1c2c(F)c(F)c(-c3cnn(C4CC4)c3)c(OC3CCC3)c2CC[C@@H]1C [I-75, (S)-1-(5-cyclobutoxy-6-(1-cyclopropyl-1H-pyrazol-4-yl)-7,8-difluoro-2-methyl-3,4-dihydroquinolin-1 (2H)-yl)ethanone] | ≤ 5.00 | < 6.00 |
| C[C@H]1CCc2c(ccc(-c3cnn(C4CCNCC4)c3)c2Oc2cccc(Cl)n2)N1C(=O)C1CC1 [I-94, (S)-(5-(6-chloropyridin-2-yloxy)-2-methyl-6-(1-(piperidin-4-yl)-1H-pyrazol-4-yl)-3,4-dihydroquinolin-1(2H)-yl)(cyclopropyl)methanone] | 5.00 to 6.00 | > 6.30 |
| C[C@H]1CCc2c(ccc(-c3cnn(C4CCNCC4)c3)c2Oc2ccccn2)N1C(=O)C1CC1 [I-95, (S)-cyclopropyl(2-methyl-6-(1-(piperidin-4-yl)-1H-pyrazol-4-yl)-5-(pyridin-2-yloxy)-3,4-dihydroquinolin-1(2H)-yl)methanone] | 5.00 to 6.00 | > 6.30 |
| COC(=O)N1c2ccc(-c3cnn(C4CCNCC4)c3)c(Oc3ccccn3)c2CC[C@@H]1C [I-96, (S)-methyl 2-methyl-6-(1-(piperidin-4-yl)-1H-pyrazol-4-yl)-5-(pyridin-2-yloxy)-3,4-dihydroquinoline-1(2H)-carboxylate] | 6.00 to 7.00 | > 6.30 |
| C[C@H]1CCc2c(ccc(-c3cnn(C4CCNCC4)c3)c2Oc2cccc(F)n2)N1C(=O)C1CC1 [I-97, (S)-cyclopropyl(5-(6-fluoropyridin-2-yloxy)-2-methyl-6-(1-(piperidin-4-yl)-1H-pyrazol-4-yl)-3,4-dihydroquinolin-1(2H)-yl)methanone] | 6.00 to 7.00 | > 6.30 |
| COc1cccc(Oc2c(-c3cnn(C4CCNCC4)c3)ccc3c2CC[C@H](C)N3C(=O)C2CC2)n1 [I-98, (S)-cyclopropyl(5-(6-methoxypyridin-2-yloxy)-2-methyl-6-(1-(piperidin-4-yl)-1H-pyrazol-4-yl)-3,4-dihydroquinolin-1(2H)-yl)methanone] | 6.00 to 7.00 | > 6.30 |
| C[C@H]1CCc2c(OC3CCC3)c(-c3cnn(C4CCNCC4)c3)cc(F)c2N1C(=O)C1CC1 [I-103, (S)-(5-cyclobutoxy-8-fluoro-2-methyl-6-(1-(piperidin-4-yl)-1H-pyrazol-4-yl)-3,4-dihydroquinolin-1(2H)-yl)(cyclopropyl)methanone] | 6.00 to 7.00 | > 6.30 |
| CC(=O)N1c2c(F)cc(-c3cnn(C4CCNCC4)c3)c(OC3CCC3)c2CC[C@@H]1C [I-105, (S)-1-(5-cyclobutoxy-8-fluoro-2-methyl-6-(1-(piperidin-4-yl)-1H-pyrazol-4-yl)-3,4-dihydroquinolin-1(2H)-yl)ethanone] | 6.00 to 7.00 | > 6.30 |
| CC(=O)N1c2c(F)c(F)c(-c3cnn(C4CCNCC4)c3)c(OC3CCC3)c2CC[C@@H]1C [I-106, (S)-1-(5-cyclobutoxy-7,8-difluoro-2-methyl-6-(1-(piperidin-4-yl)-1H-pyrazol-4-yl)-3,4-dihydroquinolin-1 (2H)-yl)ethanone] | 5.00 to 6.00 | < 6.00 |
| COC(=O)N1c2ccc(-c3cnn(C4CC5CNCC5C4)c3)c(OC3CCC3)c2CC[C@@H]1C (stereo partly drawn) [I-109, (2S)-methyl 5-cyclobutoxy-2-methyl-6-(1-(octahydrocyclopenta[c]pyrrol-5-yl)-1H-pyrazol-4-yl)-3,4-dihydroquinoline-1(2H)-carboxylate] | 6.00 to 7.00 | > 6.30 |
| COC(=O)N1c2c(F)cc(-c3cnn(C4CCNCC4)c3)c(OC3CCC3)c2CC[C@@H]1C [I-110, (S)-methyl 5-cyclobutoxy-8-fluoro-2-methyl-6-(1-(piperidin-4-yl)-1H-pyrazol-4-yl)-3,4-dihydroquinoline-1(2H)-carboxylate] | 6.00 to 7.00 | > 6.30 |
| C[C@H]1CCc2c(ccc(-c3cnoc3)c2OC2CCC2)N1C(=O)C1CC1 [I-123, (S)-(5-cyclobutoxy-6-(isoxazol-4-yl)-2-methyl-3,4-dihydroquinolin-1(2H)-yl)(cyclopropyl)methanone] | 5.00 to 6.00 | < 6.00 |
| C[C@H]1CCc2c(OC3CCC3)c(-c3cn(C)nn3)cc(F)c2N1C(=O)C1CC1 [I-124, (S)-(5-cyclobutoxy-8-fluoro-2-methyl-6-(1-methyl-1H-1,2,3-triazol-4-yl)-3,4-dihydroquinolin-1 (2H)-yl)(cyclopropyl)methanone] | 6.00 to 7.00 | 6.00 to 6.30 |
| COC(=O)N1c2c(F)cc(-c3cn(C)nn3)c(OC3CCC3)c2CC[C@@H]1C [I-125, (S)-methyl 5-cyclobutoxy-8-fluoro-2-methyl-6-(1-methyl-1H-1,2,3-triazol-4-yl)-3,4-dihydroquinoline-1(2H)-carboxylate] | 5.00 to 6.00 | < 6.00 |
